target: T1, SYK kinase (Homo sapiens, UniProt P43405); experiment: In vitro Syk inhibition assay (Kinase TK HTRF, Cisbio); format: biochemical; details: full length SYK purified from a baculovirus system; ATP at least twice the Km; room temperature; average of triplicate; read-out: IC50: Concentration inhibiting 50% of protein kinase
T1 construct: SYK kinase was purified as a full length protein in a baculovirus system near homogeneity; made in house
Description: Protocol Inhibition Assays.
SYK kinase was purified as a full length protein in a baculovirus system near homogeneity. All kinase assays were performed with the Kinase TK (tyrosine kinase) HTRF (Homogeneous Time Resolved Fluorescence) assay developed by Cisbio international. These assays were carried out at room temperature in 96-wells half-area white plates in a final volume of 25 μl of kinase buffer (10 mM MgCl2; 2 mM MnCl2; 50 mM Sodium-HEPES pH 7.8; BRIJ-35 0.01%, 1 μM substrate) containing ATP at a concentration of at least twice the Km for each enzyme and an appropriate amount of recombinant enzyme to ensure a linear reaction rate. Reactions were initiated upon introduction of the enzyme and terminated with the addition of one reaction volume (25 μl) of HTRF detection buffer. Plates were incubated for one hour at room temperature and the time resolved Fluorescence resonance energy transfer signal was measured in a Pherastar FS microplate reader (BMG Labtech). All data are the average of triplicate results with a standard deviation <10%.

Row | SMILES | IC50
1 | Cc1ccnc(Nc2cccc(-c3cnc(N4CCNC(=O)C4C)o3)c2)n1 (stereo not drawn) [Compound 001, 3-Methyl-4-{5-[3-(4-methyl-pyrimidin-2-ylamino)-phenyl]-oxazol-2-yl}-piperazin-2-one] | ≤ 100 nM
2 | Cc1ccnc(Nc2cccc(-c3cnc(N4CCNC(=O)C4(C)C)o3)c2)n1 [Compound 002, 3,3-Dimethyl-4-{5-[3-(4-methyl-pyrimidin-2-ylamino)-phenyl]-oxazol-2-yl}-piperazin-2-one] | ≤ 100 nM
3 | Cc1ccnc(Nc2cccc(-c3cnc(N4CCNC(=O)C4C(C)C)o3)c2)n1 (stereo not drawn) [Compound 003, 3-Isopropyl-4-{5-[3-(4-methyl-pyrimidin-2-ylamino)-phenyl]-oxazol-2-yl}-piperazin-2-one] | ≤ 100 nM
4 | CCc1ccnc(Nc2cccc(-c3cnc(N4CCNC(=O)C4C)o3)c2)n1 (stereo not drawn) [Compound 004, 4-{5-[3-(4-Ethyl-pyrimidin-2-ylamino)-phenyl]-oxazol-2-yl}-3-methyl-piperazin-2-one] | ≤ 100 nM
5 | Cc1ccnc(Nc2cc(CN3CCOCC3)cc(-c3cnc(N4CCNC(=O)C4(C)C)o3)c2)n1 [Compound 005, 3,3-Dimethyl-4-{5-[3-(4-methyl-pyrimidin-2-ylamino)-5-morpholin-4-ylmethyl-phenyl]-oxazol-2-yl}-piperazin-2-one] | ≤ 100 nM
6 | CCCc1cnc(Nc2cccc(-c3cnc(N4CCNC(=O)C4C)o3)c2)nc1 (stereo not drawn) [Compound 006, 3-Methyl-4-{5-[3-(5-propyl-pyrimidin-2-ylamino)-phenyl]-oxazol-2-yl}-piperazin-2-one] | 1000 to 10000 nM
7 | Cc1ccnc(Nc2cccc(-c3cnc(N4CCNC(=O)[C@H]4C)o3)c2)n1 [Compound 007, (R)-3-Methyl-4-{5-[3-(4-methyl-pyrimidin-2-ylamino)-phenyl]-oxazol-2-yl}-piperazin-2-one] | ≤ 100 nM
8 | CC1C(=O)NCCN1c1ncc(-c2cc(CN3CCOCC3)cc(Nc3nccc(C#N)n3)c2)o1 (stereo not drawn) [Compound 008, 2-{3-[2-(2-Methyl-3-oxo-piperazin-1-yl)-oxazol-5-yl]-5-(morpholin-4-ylmethyl)-phenylamino}-pyrimidine-4-carbonitrile] | ≤ 100 nM
9 | CC1C(=O)NCCN1c1ncc(-c2cccc(Nc3nccc(C(F)(F)F)n3)c2)o1 (stereo not drawn) [Compound 009, 3-Methyl-4-{5-[3-((4-trifluoromethyl)-pyrimidin-2-ylamino)-phenyl]-oxazol-2-yl}-piperazin-2-one] | ≤ 100 nM
10 | CC1C(=O)NCCN1c1ncc(-c2cccc(Nc3nccc(-c4cccs4)n3)c2)o1 (stereo not drawn) [Compound 010, 3-Methyl-4-{5-[3-(4-thiophen-2-yl-pyrimidin-2-ylamino)-phenyl]-oxazol-2-yl}-piperazin-2-one] | ≤ 100 nM
11 | CCC1C(=O)NCCN1c1ncc(-c2cccc(Nc3nccc(C(F)(F)F)n3)c2)o1 (stereo not drawn) [Compound 011, 3-Ethyl-4-{5-[3-((4-trifluoromethyl)-pyrimidin-2-ylamino)-phenyl]-oxazol-2-yl}-piperazin-2-one] | ≤ 100 nM
12 | CC(C)C1C(=O)NCCN1c1ncc(-c2cccc(Nc3nccc(C(F)(F)F)n3)c2)o1 (stereo not drawn) [Compound 012, 3-Isopropyl-4-{5-[3-((4-trifluoromethyl)-pyrimidin-2-ylamino)-phenyl]-oxazol-2-yl}-piperazin-2-one] | ≤ 100 nM
13 | COc1ccnc(Nc2cccc(-c3cnc(N4CCNC(=O)C4C)o3)c2)n1 (stereo not drawn) [Compound 013, 4-{5-[3-(4-Methoxy-pyrimidin-2-ylamino)-phenyl]-oxazol-2-yl}-3-methyl-piperazin-2-one] | ≤ 100 nM
14 | Cc1ccnc(Nc2cc(CN3CCOCC3)cc(-c3cnc(N4CCNC(=O)C4C)o3)c2)n1 (stereo not drawn) [Compound 014, 3-Methyl-4-{5-[3-(4-methyl-pyrimidin-2-ylamino)-5-morpholin-4-ylmethyl-phenyl]-oxazol-2-yl}-piperazin-2-one] | 100 to 1000 nM
15 | CC1C(=O)NCCN1c1ncc(-c2cc(CN3CCOCC3)cc(Nc3nccc(C(F)(F)F)n3)c2)o1 (stereo not drawn) [Compound 015, 3-Methyl-4-{5-[3-morpholin-4-ylmethyl-5-((4-trifluoromethyl)-pyrimidin-2-ylamino)-phenyl]-oxazol-2-yl}-piperazin-2-one] | ≤ 100 nM
16 | CCc1cnc(Nc2cccc(-c3cnc(N4CCNC(=O)C4C)o3)c2)nc1 (stereo not drawn) [Compound 016, 4-{5-[3-(5-Ethyl-pyrimidin-2-ylamino)-phenyl]-oxazol-2-yl}-3-methyl-piperazin-2-one] | 1000 to 10000 nM
17 | CC1C(=O)NCCN1c1ncc(-c2cccc(Nc3nccc(C#N)n3)c2)o1 (stereo not drawn) [Compound 017, 2-{3-[2-(2-Methyl-3-oxo-piperazin-1-yl)-oxazol-5-yl]-phenylamino}-pyrimidine-4-carbonitrile] | ≤ 100 nM
18 | CC1(C)C(=O)NCCN1c1ncc(-c2cccc(Nc3nccc(C(F)(F)F)n3)c2)o1 [Compound 018, 3,3-Dimethyl-4-{5-[3-((4-trifluoromethyl)-pyrimidin-2-ylamino)-phenyl]-oxazol-2-yl}-piperazin-2-one] | ≤ 100 nM
19 | Cc1ccnc(Nc2cccc(-c3cnc(N4CCNC(=O)[C@@H]4C)o3)c2)n1 [Compound 019, (S)-3-Methyl-4-{5-[3-(4-methyl-pyrimidin-2-ylamino)-phenyl]-oxazol-2-yl}-piperazin-2-one] | ≤ 100 nM
20 | CCC1C(=O)NCCN1c1ncc(-c2cccc(Nc3nccc(C)n3)c2)o1 (stereo not drawn) [Compound 020, 3-Ethyl-4-{5-[3-(4-methyl-pyrimidin-2-ylamino)-phenyl]-oxazol-2-yl}-piperazin-2-one] | ≤ 100 nM
21 | CC(C)c1ccnc(Nc2cccc(-c3cnc(N4CCNC(=O)C4C)o3)c2)n1 (stereo not drawn) [Compound 021, 4-{5-[3-(4-Isopropyl-pyrimidin-2-ylamino)-phenyl]-oxazol-2-yl}-3-methyl-piperazin-2-one] | ≤ 100 nM
22 | Cc1cnc(Nc2cccc(-c3cnc(N4CCNC(=O)C4(C)C)o3)c2)nc1C [Compound 022, 4-{5-[3-(4,5-Dimethyl-pyrimidin-2-ylamino)-phenyl]-oxazol-2-yl}-3,3-dimethyl-piperazin-2-one] | 1000 to 10000 nM
23 | CC(C)c1ccnc(Nc2cccc(-c3cnc(N4CCNC(=O)C4(C)C)o3)c2)n1 [Compound 023, 4-{5-[3-(4-Isopropyl-pyrimidin-2-ylamino)-phenyl]-oxazol-2-yl}-3,3-dimethyl-piperazin-2-one] | ≤ 100 nM
24 | Cc1ccnc(Nc2cccc(-c3cnc(N4CCNC(=O)C4CCO)o3)c2)n1 (stereo not drawn) [Compound 024, 3-(2-Hydroxy-ethyl)-4-{5-[3-(4-methyl-pyrimidin-2-ylamino)-phenyl]-oxazol-2-yl}-piperazin-2-one] | 100 to 1000 nM
25 | CCC1C(=O)NCCN1c1ncc(-c2cccc(Nc3nccc(C(C)C)n3)c2)o1 (stereo not drawn) [Compound 025, 3-Ethyl-4-{5-[3-(4-isopropyl-pyrimidin-2-ylamino)-phenyl]-oxazol-2-yl}-piperazin-2-one] | ≤ 100 nM
26 | COc1ccnc(Nc2cccc(-c3cnc(N4CCNC(=O)C4(C)C)o3)c2)n1 [Compound 026, 4-{5-[3-(4-Methoxy-pyrimidin-2-ylamino)-phenyl]-oxazol-2-yl}-3,3-dimethyl-piperazin-2-one] | ≤ 100 nM
27 | CC1C(=O)NCCN1c1ncc(-c2cccc(Nc3nccc(N4CCOCC4)n3)c2)o1 (stereo not drawn) [Compound 027, 3-Methyl-4-{5-[3-(4-morpholin-4-yl-pyrimidin-2-ylamino)-phenyl]-oxazol-2-yl}-piperazin-2-one] | 100 to 1000 nM

Reference: patent publication US10392373B2, “Oxazole derivatives that inhibit Syk” (AB Science, priority 2015, dated 2019)
